Data set [1] deals with intersegmental-vessel (ISV) formation. In words: Intersegmental-vessel formation in Tg(fli-1:EGFP) zebrafish. The data set is classed as in vivo. The note with it: 1 dpf embryos treated 48 hours; SU4312 3-30 μM, PTK787/ZK222584 0.3-3 μM, VRI 0.1-0.3 μM, SU5416 0.3-1 μM. On the procedure:
Wild-type zebrafish (AB strain) and Tg (fli-1:EGFP) transgenic zebrafish were maintained as described in the Zebrafish Handbook (Westerfield, 1993). Zebrafish embryos were generated by natural pair-wise mating (3-12 months old) and raised at 28.5° C. in embryo medium (13.7 mM NaCl, 540 μM KCl, pH 7.4, 25 μM Na2HPO4, 44 μM KH2PO4, 300 μM CaCl2, 100 μM MgSO4, 420 μM NaHCO3, pH 7.4). […] An equal concentration of DMSO in embryo medium was used as vehicle control in each experiment.
After drug treatment, zebrafish were removed from microplate and observed for gross morphological changes of blood vessel under a fluorescence microscope (Olympus am Motorized Inverted Microscope, Japan) equipped with a digital camera (DP controller, Soft Imaging System, Olympus). Images were analyzed with Axiovision 4.2 and Adobe Photoshop 7.0.
Wild-type zebrafish (AB strain) and Tg(fli-1:EGFP) transgenic zebrafish were maintained as described in the Zebrafish Handbook (Westerfield, 1993). Zebrafish embryos were generated by natural pair-wise mating (3-12 months old) and were raised at 28.5° C. in embryo medium (13.7 mM NaCl, 540 μM KCl, pH 7.4, 25 μM Na2HPO4, 44 μM KH2PO4, 300 μM CaCl2, 100 μM MgSO4, 420 μM NaHCO3, pH 7.4). […] Equal concentration of DMSO in embryo medium was used as vehicle control in each experiment.
After drug treatment, zebrafish were removed from the microplate and observed for gross morphological changes of blood vessel under a fluorescence microscope (Olympus am Motorized Inverted Microscope, Japan) equipped with a digital camera (DP controller, Soft Imaging System, Olympus). Images were analyzed with Axiovision 4.2 and Adobe Photoshop 7.0.

The subject of the next data set is CGNs. In words: MPP+-induced neurotoxicity in CGNs, MTT and LDH assays. In kind it is cell-based, rat. The note with it: for MPP+-induced neurotoxicity, co-administration: co-administrated with 35 μM MPP+, SU4312 10-20 μM, PTK787/ZK222584 10 μM, MTT at 24 hours; for MPP+-induced cell death (cell viability, MTT and LDH assays): pre-treatment 2 hours, then 35 μM MPP+ for 24 hours; for cell proliferative or cytotoxic effects of the drug alone: without MPP+, 26 hours, SU4312 1-30 μM, SU5416 30 μM, sunitinib 2 μM. On the procedure: All animal experiments were conducted according to the ethical guidelines of ICMS, Macau University and the Animal Care Facility, The Hong Kong Polytechnic University. Rat CGNs were prepared from 8-day-old Sprague-Dawley rats (The Animal Care Facility, The Hong Kong Polytechnic University) as described by Li et al., 2005. Briefly, neurons were seeded at a density of 2.7×10^5 cells/ml in basal modified Eagle's medium (Invitrogen) containing 10% fetal bovine serum, 25 mM KCl, 2 mM glutamine, and penicillin (100 units/ml)/streptomycin (100 μg/ml). Cytosine arabinoside (10 μM) was added to the culture medium 24 hour after plating to limit the growth of non-neuronal cells. With the use of this protocol, more than 95% of the cultured cells were granule neurons.
(§1) The percentage of surviving neurons in the presence of SU4312 and/or MPP^+ was estimated by determining the activity of mitochondrial dehydrogenases with 3(4,5-dimethylthiazol-2-yl)-2.5-diphenyltetrazolium bromide (MTT) assay (Li et al., 2007). The assay was performed according to the specifications of the manufacturer (MTT kit I; Roche Applied Science). Briefly, the neurons were cultured in 96-well plates, 10 μl of 5 mg/ml MTT labeling reagent was added to each well containing cells in 100 μl of medium, and the plates were incubated for 4 hours in a humidified incubator at 37° C. After the incubation, 100 μl of the solvating solution (0.01 N HCl in 10% SDS solution) was added to each well for 16-20 hours. Absorbance of the samples was measured at a wavelength of 570 nm with 655 nm as a reference wavelength. Unless otherwise indicated, the extent of MTT conversion in cells exposed to MPP^+ is expressed as a percentage of the control.
Cytotoxicity was determined by measuring the release of lactate dehydrogenase (LDH). Briefly, cells were precipitated by centrifugation at 500 g for 5 min at room temperature, 50 μl of the supernatants was transferred into new wells, and LDH was determined using the in vitro toxicology assay kit (Roche). The absorbance of the samples was measured at a wavelength of 490 nm with 655 nm as a reference wavelength.
Rat CGNs were prepared from 8-day-old Sprague-Dawley rats (The Animal Care Facility, The Hong Kong Polytechnic University) as described by Li et al., 2005. Briefly, neurons were seeded at a density of 2.7×10^5 cells/ml in basal modified Eagle's medium (Invitrogen) containing 10% fetal bovine serum, 25 mM KCl, 2 mM glutamine, and penicillin (100 units/ml)/streptomycin (100 μg/ml). Cytosine arabinoside (10 μM) was added to the culture medium 24 hours after plating to limit the growth of non-neuronal cells. With the use of this protocol, more than 95% of the cultured cells were granule neurons.
as §1, with “The” for “The percentage of surviving neurons in the presence of SU4312 and/or MPP^+ was estimated by determining the activity of mitochondrial dehydrogenases with 3(4,5-dimethylthiazol-2-yl)-2.5-diphenyltetrazolium bromide (MTT) assay (Li et al., 2007). The”, “incubated at 37° C.” for “incubated”, “incubator.” for “incubator at 37° C.”, “The absorbance” for “Absorbance”
(Formazan colour is commonly taken as a measure of viable cells.)

Entries after “also recorded” stand apart in the source; their conditions may differ.

`Clc1ccc(Nc2nnc(Cc3ccncc3)c3ccccc23)cc1` [PTK787/ZK222584]: in data set [1], the “inhibition of intersegmental-vessel (ISV) formation” value (shortened to “inhibition of intersegmental-vessel”) is given as “showed differential concentration-dependent inhibition of ISV formation; also recorded: at 1 μM inhibited angiogenesis with the potency similar to that of SU4312 at 30 μM”. Further, in the data set with CGNs, the “MPP+-induced neurotoxicity, co-administration” value is “did not show neuroprotective effects”; the “MPP+-induced cell death (cell viability, MTT and LDH assays)” value (“MPP+-induced cell death” for short) was “at 3-10 μM failed to block neuronal loss in vitro”.

With `CN(C)c1ccc(C=C2C(=O)Nc3ccccc32)cc1` [SU4312, 3-[4-(dimethylamino)benzylidenyl]indolin-2-one], the “inhibition of intersegmental-vessel” value in data set [1] is reported as “showed differential concentration-dependent inhibition of ISV formation”. Moreover, in the data set on CGNs, the “MPP+-induced neurotoxicity, co-administration” value is “still had neuroprotective effects”; the “MPP+-induced cell death” value was “prevented MPP^+-induced cell death in a concentration-dependent manner”; the “cell proliferative or cytotoxic effects of the drug alone” value is “did not affect cell proliferation or show any cytotoxic effects; also recorded: did not induce any neurotoxicity”.

On to `Cc1cc(C)c(/C=C2\C(=O)Nc3ccccc32)[nH]1` [SU5416, (3Z)-3-[(3,5-dimethyl-1H-pyrrol-2-yl)methylidene]-1,3-dihydro-2H-indol-2-one], for which, in data set [1], the “inhibition of intersegmental-vessel” value was “did not show this activity”. In the data set on CGNs, the “MPP+-induced cell death” value was “prevented 35 μM MPP^+-induced cell death in a concentration-dependent manner”; the “cell proliferative or cytotoxic effects of the drug alone” value is “did not produce any cell proliferative or cytotoxic effects”.

The record behind these values is patent US9486440B2, “Uses of indole-ketones or indolidones as neuro-protective drugs” (UNIVERSITY OF MACAU, priority 2011, dated 2016).
